In US11331369B2, “Endoparasitic depsipeptides” (Zoetis Services LLC, priority 2017, dated 2022) one finds minimal effective concentration data, which are given here for ten compounds.

The test system of this test is microfilariae of Dirofilaria immitis. The test can be described thus: Dirofilaria immitis, Microfilaria (DiMF) In vitro Assay. The class given is cell-based. The settings on record: 72 h, read-out: DiMF Minimum Effective Dose (MED), approximately 72 hours incubation, microfilariae assessed for survival or paralysis.
As to `CC(C)C[C@H]1C(=O)O[C@H](Cc2ccc(CN3CCOc4cccnc43)cc2)C(=O)N(C)[C@@H](CC(C)C)C(=O)O[C@H](C)C(=O)N(C)[C@@H](CC(C)C)C(=O)O[C@H](Cc2ccccc2)C(=O)N(C)[C@@H](CC(C)C)C(=O)O[C@H](C)C(=O)N1C` [Example 10-37, (3S,6R,9S,12R,15S,18R,21S,24R)-6-benzyl-18-[[4-(2,3-dihydropyrido[3,2-b][1,4]oxazin-4-ylmethyl)phenyl]methyl]-3,9,15,21-tetraisobutyl-4,10,12,16,22,24-hexamethyl-1,7,13,19-tetraoxa-4, 10,16,22-tetrazacyclotetracosane-2,5,8,11,14,17,20,23-octaone], the minimal effective concentration lay within 0.001 to 0.01 µM. In the case of `CC(C)C[C@H]1C(=O)O[C@H](Cc2ccc(CN3CCSc4ncccc43)cc2)C(=O)N(C)[C@@H](CC(C)C)C(=O)O[C@H](C)C(=O)N(C)[C@@H](CC(C)C)C(=O)O[C@H](Cc2ccccc2)C(=O)N(C)[C@@H](CC(C)C)C(=O)O[C@H](C)C(=O)N1C` [Example 10-35, (3S,6R,9S,12R,15S,18R,21S,24R)-6-benzyl-18-[[4-(2,3-dihydropyrido[2,3-b][1,4]thiazin-1-ylmethyl)phenyl]methyl]-3,9,15,21-tetraisobutyl-4,10,12,16,22,24-hexamethyl-1,7,13,19-tetraoxa-4, 10,16,22-tetrazacyclotetracosane-2,5,8,11,14,17,20,23-octaone] it was 0.01 to 0.1 µM; in that of `CC(C)C[C@H]1C(=O)O[C@H](Cc2ccc(CN3CCS(=O)(=O)c4ccccc43)cc2)C(=O)N(C)[C@@H](CC(C)C)C(=O)O[C@H](C)C(=O)N(C)[C@@H](CC(C)C)C(=O)O[C@H](Cc2ccc(CN3CCS(=O)(=O)c4ccccc43)cc2)C(=O)N(C)[C@@H](CC(C)C)C(=O)O[C@H](C)C(=O)N1C` [Example 10-33, (3S,6R,9S,12R,15S,18R,21S,24R)-6,18-bis(4-((1,1-dioxido-2,3-dihydro-4H-benzo[b][1,4]thiazin-4-yl)methyl)benzyl)-3,9,15,21-tetraisobutyl-4,10,12,16,22,24-hexamethyl-1,7,13,19-tetraoxa-4, 10,16,22-tetraazacyclotetracosan-2,5,8,11,14,17,20,23-octaone], 0.01 to 0.1 µM. For `CC(C)C[C@H]1C(=O)O[C@H](Cc2ccc(Cn3ccc(-c4cccnc4)n3)cc2)C(=O)N(C)[C@@H](CC(C)C)C(=O)O[C@H](C)C(=O)N(C)[C@@H](CC(C)C)C(=O)O[C@H](Cc2ccc(Cn3ccc(-c4cccnc4)n3)cc2)C(=O)N(C)[C@@H](CC(C)C)C(=O)O[C@H](C)C(=O)N1C` [Example 1b-139, (3S,6R,9S,12R,15S,18R,21S,24R)-3,9,15,21-tetraisobutyl-4,6,10,16,18,22-hexamethyl-12,24-bis(4-((3-(pyridin-3-yl)-1H-pyrazol-1-yl)methyl)benzyl)-1,7,13,19-tetraoxa-4,10,16,22-tetraazacyclotetracosan-2,5,8,11,14,17,20,23-octaone], the minimal effective concentration was 0.01 to 0.1 µM. In the case of `CCOC(=O)c1cnn(Cc2ccc(C[C@H]3OC(=O)[C@H](CC(C)C)N(C)C(=O)[C@@H](C)OC(=O)[C@H](CC(C)C)N(C)C(=O)[C@@H](Cc4ccccc4)OC(=O)[C@H](CC(C)C)N(C)C(=O)[C@@H](C)OC(=O)[C@H](CC(C)C)N(C)C3=O)cc2)c1` [Example 2-12, ethyl 1-(4-(((2R,5S,8R,11S,14R,17S,20R,23S)-14-benzyl-5,11,17,23-tetraisobutyl-4,8,10,16,20,22-hexamethyl-3,6,9,12,15,18,21,24-octaoxo-1,7,13,19-tetraoxa-4,10,16,22-tetraazacyclotetracosan-2-yl)methyl)benzyl)-1H-pyrazole-4-carboxylate] it was 0.001 to 0.01 µM; in that of `CC(C)C[C@H]1C(=O)O[C@H](Cc2ccc(Cn3ccc(C4CC4)n3)cc2)C(=O)N(C)[C@@H](CC(C)C)C(=O)O[C@H](C)C(=O)N(C)[C@@H](CC(C)C)C(=O)O[C@H](Cc2ccc(Cn3ccc(C4CC4)n3)cc2)C(=O)N(C)[C@@H](CC(C)C)C(=O)O[C@H](C)C(=O)N1C` [Example 1b-67, (3S,6R,9S,12R,15S,18R,21S,24R)-6,18-bis(4-((3-cyclopropyl-1H-pyrazol-1-yl)methyl)benzyl)-3,9,15,21-tetraisobutyl-4,10,12,16,22,24-hexamethyl-1,7,13,19-tetraoxa-4,10,16,22-tetraazacyclotetracosan-2,5,8,11,14,17,20,23-octaone], 0.01 to 0.1 µM. In the case of `CC(C)C[C@H]1C(=O)O[C@H](Cc2ccc(Cn3nc(C4CC4)c(N)c3C3CC3)cc2)C(=O)N(C)[C@@H](CC(C)C)C(=O)O[C@H](C)C(=O)N(C)[C@@H](CC(C)C)C(=O)O[C@H](Cc2ccccc2)C(=O)N(C)[C@@H](CC(C)C)C(=O)O[C@H](C)C(=O)N1C` [Example 2-85, (3S,6R,9S,12R,15S,18R,21S,24R)-6-(4-((4-amino-3,5-dicyclopropyl-1H-pyrazol-1-yl)methyl)benzyl)-18-benzyl-3,9,15,21-tetraisobutyl-4,10,12,16,22,24-hexamethyl-1,7,13,19-tetraoxa-4,10,16,22-tetraazacyclotetracosan-2,5,8,11,14,17,20,23-octaone] it was 0.01 to 0.1 µM. Under `CC(C)C[C@H]1C(=O)O[C@H](Cc2ccc(Cn3ccc(C(F)(F)F)n3)cc2)C(=O)N(C)[C@@H](CC(C)C)C(=O)O[C@H](C)C(=O)N(C)[C@@H](CC(C)C)C(=O)O[C@H](Cc2ccccc2)C(=O)N(C)[C@@H](CC(C)C)C(=O)O[C@H](C)C(=O)N1C` [Example 2-58, (3S,6R,9S,12R,15S,18R,21S,24R)-6-benzyl-3,9,15,21-tetraisobutyl-4,10,12,16,22,24-hexamethyl-18-(4-((3-(trifluoromethyl)-1H-pyrazol-1-yl)methyl)benzyl)-1,7,13,19-tetraoxa-4,10,16,22-tetraazacyclotetracosan-2,5,8,11,14,17,20,23-octaone] stands 0.01 to 0.1 µM; under `CC(C)C[C@H]1C(=O)O[C@H](Cc2ccc(Cn3cc(-c4ccccc4)cn3)cc2)C(=O)N(C)[C@@H](CC(C)C)C(=O)O[C@H](C)C(=O)N(C)[C@@H](CC(C)C)C(=O)O[C@H](Cc2ccccc2)C(=O)N(C)[C@@H](CC(C)C)C(=O)O[C@H](C)C(=O)N1C` [Example 2-3, (3S,6R,9S,12R,15S,18R,21S,24R)-6-benzyl-3,9,15,21-tetraisobutyl-4,10,12,16,22,24-hexamethyl-18-[[4-[(4-phenylpyrazol-1-yl)methyl]phenyl]methyl]-1,7,13,19-tetraoxa-4,10,16,22-tetrazacyclotetracosane-2,5,8,11,14,17,20,23-octaone], 0.01 to 0.1 µM; under `Cc1nn(Cc2ccc(C[C@H]3OC(=O)[C@H](CC(C)C)N(C)C(=O)[C@@H](C)OC(=O)[C@H](CC(C)C)N(C)C(=O)[C@@H](Cc4ccccc4)OC(=O)[C@H](CC(C)C)N(C)C(=O)[C@@H](C)OC(=O)[C@H](CC(C)C)N(C)C3=O)cc2)c(C)c1S(=O)(=O)N1CCCCC1` [Example 2-60, (3S,6R,9S,12R,15S,18R,21S,24R)-6-benzyl-18-(4-((3,5-dimethyl-4-(piperidin-1-ylsulfonyl)-1H-pyrazol-1-yl)methyl)benzyl)-3,9,15,21-tetraisobutyl-4,10,12,16,22,24-hexamethyl-1,7,13,19-tetraoxa-4,10,16,22-tetraazacyclotetracosan-2,5,8,11,14,17,20,23-octaone], 0.01 to 0.1 µM.
